According to US20250263376A1, “(E)-N-CINNAMOYLAMINOALKANOLS WITH MELANOGENESIS INHIBITORY ACTIVITY” (Uniwersytet Jagiellonski, priority 2024, published 2025):

Key:
[1] = test system: primary melanocytes; test: Safety, LDH test in primary melanocytes; assay type: cell-based; details: 48 hours, vs Triton X-100
Protocol: (§1) In order to test the safety of the compounds, both normal human cells were used: keratinocytes (HaCaT), fibroblasts (BJ), primary melanocytes that occur in the skin, as well as human cancer cells: the hepatocarcinoma line HepG2 and the neuroblastoma line SH-SY5Y, which are considered a model for the assessment of hepatocytotoxicity and neurocytotoxicity. The concentrations of the tested compounds in the range of […] were used in the studies. The cell lines used in the research were purchased from the American Type Culture Collection (ATCC) and were cultured in media recommended by the manufacturer with the addition of FBS and antibiotics in an incubator ensuring appropriate culture conditions, i.e. humidity, temperature and CO2 concentration. Cells were seeded into multiwell plates and incubated with the test compounds for 48 hours. After this time, MTT and LDH tests were performed to assess cell viability. The MTT test is based on the ability to transform the substrate: [3-(4,5-dimethyl-2-thiazolyl)-2,5-diphenyl-2H-tetrazolium bromide into a colored product only by living cells. The absorbance at 570 nm, which corresponds to the absorption maximum for the product, is directly proportional to cell viability. The LDH test is based on testing the activity of the enzyme lactate dehydrogenase in the culture medium, which is released from cells as a result of damage to the cell membrane, e.g. as a result of cell death. Triton X-100 was used as a positive control in the test. The determination is colorimetric, the substrate is transformed by the released enzyme into a colored product, an increase in absorbance indicates a larger amount of the released enzyme, and thus confirms greater damage to cell membranes. Tables 7 and 8 present the results obtained, which correspond to the viability of cells incubated with the compounds in relation to the viability of cells constituting a control sample, i.e. incubated with the solvent (DMSO) at the same concentration as in the case of the groups tested in the MTT test or in relation to the results obtained for the Triton X-100 positive control in the LDH test. They indicate that the compounds are safe at the concentrations tested.

[2] = test system: S. typhimurium TA100; test: Ames microplate test, TA100; assay type: cell-based, Salmonella typhimurium
Protocol: The study used the Ames microplate test (Ames MPF™ Penta 2 by Xenometrix, Allschwil, Switzerland). Growth medium, exposure medium, indicator medium, positive controls, hepatic microsomal fraction, NADP, glucose-6-phosphate, Salmonella typhimurium and Escherichia coli strains were components of the purchased experimental kit. Bacteria were grown overnight in growth medium. They were then exposed to the test compound at the appropriate concentration in exposure medium without or with the rat microsomal fraction S9 in 24-well plates for 90 min at 37° C. with shaking. Then, indicator medium was added to the wells and pipetted into 384-well plates, which were incubated for 48 hours at 37° C. without shaking. Results were assessed by counting the wells in which the medium turned yellow for each experimental condition.

[3] = test system: S. typhimurium TA98; test: Ames microplate test, TA98; assay type: cell-based, Salmonella typhimurium
Protocol: (§2) Bacteria were grown overnight in growth medium.

[4] = test system: keratinocytes (HaCaT); test: Safety, LDH test in keratinocytes; assay type: cell-based; details: 48 hours, vs Triton X-100
Protocol: as §1

[5] = test system: E. coli WP2; test: Ames microplate test, E. coli WP2;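 further: bacteria exposed to compound for 90 min at 37 °C in 24-well plates, then transferred with indicator medium to 384-well plates and incubated 48 h before yellow well counting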
[6] = test system: S. typhimurium TA1537; test: Ames microplate test, TA1537; assay type: cell-based, Salmonella typhimurium
Protocol: as §2

[7] = test system: hepatocarcinoma HepG2; test: Safety, LDH test in HepG2; assay type: cell-based; details: 48 hours, vs Triton X-100
Protocol: as §1

[8] = test system: human reconstructed epidermis model EpiDerm; test: Extended skin irritation test in reconstructed human epidermis EpiDerm; assay type: cell-based
Protocol: Extended Skin Irritation Tests on Reconstructed Human Epidermis-Exposure Time Extended to 7 Days.
In order to perform extended skin irritation (safety) tests on the reconstructed human epidermis, the exposure time to the tested compounds was extended to 2 and 7 days in the human reconstructed epidermis model EpiDerm™ from MatTek. The epidermis was cultured according to the manufacturer's recommendations, using appropriate multi-well plates and culture media. Solutions of the tested compounds were applied to the epidermis using a positive displacement pipette and distributed using a sterile glass bulb headed Pasteur pipette. […] The epidermis was cultured in an incubator ensuring appropriate humidity, temperature (37° C.) and CO2 concentration (5%). The medium was replaced daily. After an appropriate incubation time, i.e. 2 days or 7 days, the epidermis was rinsed with sterile DPBS and incubated with MTT (Thiazolyl Blue Tetrazolium bromide) solution at 37° C. for 3 hours. After this time, a purple color of formazan was observed, correlated with tissue viability. […] Moreover, in the medium collected after the first 24 hours of EpiDerm epidermis culture, the level of interleukin 1α (Il-1α), which is a mediator of inflammation, was determined. Its level correlates with the unfavorable (irritating) effect of the tested substances on the epidermis. The level of IL-1α was determined using the Cayman Elisa test.

[9] = test system: fibroblasts (BJ); test: Safety, MTT test in fibroblasts; assay type: cell-based; details: 48 hours
Protocol: as §1

[10] = test system: primary melanocytes; test: Safety, MTT test in primary melanocytes; assay type: cell-based; details: 48 hours
Protocol: as §1

[11] = test system: neuroblastoma SH-SY5Y; test: Safety, LDH test in SH-SY5Y; assay type: cell-based; details: 48 hours, vs Triton X-100
Protocol: as §1

[12] = test system: hepatocarcinoma HepG2; test: Safety, MTT test in HepG2; assay type: cell-based; details: 48 hours
Protocol: as §1

Structure (SMILES): O=C(/C=C/c1ccc(Cl)cc1)NCCCCCO [Compound A-111, (2E)-3-(4-chlorophenyl)-N-(5-hydroxypentyl)prop-2-enamide]
- LDH, Primary melanocytes ([1]; 100 μM): 3.31 percentage of positive control
- LDH, Primary melanocytes ([1]; 150 μM): 4.95 percentage of positive control
- LDH, Primary melanocytes ([1]; 200 μM): 13.38 percentage of positive control
- LDH, Primary melanocytes ([1]; 250 μM): 18.41 percentage of positive control
- Increase in the number of yellow wells compared to the reference level, TA100 ([2]; 0.5 mM, + S9): 0.97
- Increase in the number of yellow wells compared to the reference level, TA100 ([2]; 0.5 mM, without S9): 0.74
- Increase in the number of yellow wells compared to the reference level, TA100 ([2]; 1.0 mM, + S9): 0.47
- Increase in the number of yellow wells compared to the reference level, TA100 ([2]; 1.0 mM, without S9): 0.39
- Increase in the number of yellow wells compared to the reference level, TA100 ([2]; 2.0 mM, + S9): 0.67
- Increase in the number of yellow wells compared to the reference level, TA100 ([2]; 2.0 mM, without S9): 0.42
- Increase in the number of yellow wells compared to the reference level, TA98 ([3]; 0.5 mM, + S9): 1.50
- Increase in the number of yellow wells compared to the reference level, TA98 ([3]; 0.5 mM, without S9): 0.7
- Increase in the number of yellow wells compared to the reference level, TA98 ([3]; 1.0 mM, + S9): 0.83
- Increase in the number of yellow wells compared to the reference level, TA98 ([3]; 1.0 mM, without S9): 0.44
- Increase in the number of yellow wells compared to the reference level, TA98 ([3]; 2.0 mM, + S9): 1.50
- Increase in the number of yellow wells compared to the reference level, TA98 ([3]; 2.0 mM, without S9): 1.00
- LDH, Keratinocytes (HaCaT) ([4]; 100 μM): 4.69 percentage of positive control
- LDH, Keratinocytes (HaCaT) ([4]; 150 μM): 4.43 percentage of positive control
- LDH, Keratinocytes (HaCaT) ([4]; 200 μM): 6.49 percentage of positive control
- LDH, Keratinocytes (HaCaT) ([4]; 250 μM): 13.55 percentage of positive control
- Increase in the number of yellow wells compared to the reference level, E. coli WP2 ([5]; 0.5 mM, + S9): 0.62
- Increase in the number of yellow wells compared to the reference level, E. coli WP2 ([5]; 0.5 mM, without S9): 1.46
- Increase in the number of yellow wells compared to the reference level, E. coli WP2 ([5]; 1.0 mM, + S9): 0.71
- Increase in the number of yellow wells compared to the reference level, E. coli WP2 ([5]; 1.0 mM, without S9): 1.10
- Increase in the number of yellow wells compared to the reference level, E. coli WP2 ([5]; 2.0 mM, + S9): 0.98
- Increase in the number of yellow wells compared to the reference level, E. coli WP2 ([5]; 2.0 mM, without S9): 1.10
- Increase in the number of yellow wells compared to the reference level, TA1537 ([6]; 0.5 mM, + S9): 0.27
- Increase in the number of yellow wells compared to the reference level, TA1537 ([6]; 0.5 mM, without S9): 0.80
- Increase in the number of yellow wells compared to the reference level, TA1537 ([6]; 1.0 mM, + S9): 0.45
- Increase in the number of yellow wells compared to the reference level, TA1537 ([6]; 1.0 mM, without S9): 0.54
- Increase in the number of yellow wells compared to the reference level, TA1537 ([6]; 2.0 mM, + S9): 0.27
- Increase in the number of yellow wells compared to the reference level, TA1537 ([6]; 2.0 mM, without S9): 0.54
- LDH, Hepatocarcinoma HepG2 ([7]; 100 μM): 4.90 percentage of positive control
- LDH, Hepatocarcinoma HepG2 ([7]; 150 μM): 4.73 percentage of positive control
- LDH, Hepatocarcinoma HepG2 ([7]; 200 μM): 5.48 percentage of positive control
- LDH, Hepatocarcinoma HepG2 ([7]; 250 μM): 9.75 percentage of positive control
- Viability [% of control, mean ± SD] 2 days ([8]; 0.1% in 50% PEG (10 μL)): 88.42 ± 1.25 % of control
- Viability [% of control, mean ± SD] 7 days ([8]; 0.1% in 50% PEG (10 μL)): 107.77 ± 3.12 % of control
- Viability [% of control, mean ± SD] 2 days ([8]; 0.5% in 50% PEG (10 μL)): 92.02 ± 3.47 % of control
- Viability [% of control, mean ± SD] 7 days ([8]; 0.5% in 50% PEG (10 μL)): 113.85 ± 4.03 % of control
- Viability [% of control, mean ± SD] 2 days ([8]; 1.0% in 50% PEG (10 μL)): 98.56 ± 11.78 % of control
- Viability [% of control, mean ± SD] 7 days ([8]; 1.0% in 50% PEG (10 μL)): 100.41 ± 1.52 % of control
- Il-1α in culture medium ([8]; 1.0% in 50% PEG (10 μL), medium after first 24 hours): 15.89 ± .057 pg/mL
- MTT, Fibroblasts (BJ) ([9]; 100 μM): 99.88 ± 5.25 % of solvent control
- MTT, Fibroblasts (BJ) ([9]; 150 μM): 100.94 ± 3.37 % of solvent control
- MTT, Fibroblasts (BJ) ([9]; 200 μM): 98.94 ± 4.04 % of solvent control
- MTT, Fibroblasts (BJ) ([9]; 250 μM): 94.51 ± 5.03 % of solvent control
- MTT, Primary melanocytes ([10]; 100 μM): 104.51 ± 1.19 % of solvent control
- MTT, Primary melanocytes ([10]; 150 μM): 103.09 ± 1.79 % of solvent control
- MTT, Primary melanocytes ([10]; 200 μM): 99.25 ± 1.92 % of solvent control
- MTT, Primary melanocytes ([10]; 250 μM): 93.39 ± 1.60 % of solvent control
- LDH, Neuroblastoma SH-SY5Y ([11]; 100 μM): 4.90 percentage of positive control
- LDH, Neuroblastoma SH-SY5Y ([11]; 150 μM): 4.61 percentage of positive control
- LDH, Neuroblastoma SH-SY5Y ([11]; 200 μM): 5.98 percentage of positive control
- LDH, Neuroblastoma SH-SY5Y ([11]; 250 μM): 6.77 percentage of positive control
- MTT, Hepatocarcinoma HepG2 ([12]; 100 μM): 101.10 ± 6.01 % of solvent control
- MTT, Hepatocarcinoma HepG2 ([12]; 150 μM): 97.87 ± 3.27 % of solvent control
- MTT, Hepatocarcinoma HepG2 ([12]; 200 μM): 98.19 ± 3.27 % of solvent control
- MTT, Hepatocarcinoma HepG2 ([12]; 250 μM): 96.27 ± 2.57 % of solvent control
